Measurements published in patent US9642921B2, “Cancer combination therapy and recombinant vectors” (Tocagen Inc., priority 2012, dated 2017).

Assays:
[1] = system: Tu-2449 cells (naive and Toca 511-transduced); assay: In vitro 5-FC sensitivity assay (XTT viability); format: cell-based, mouse; conditions: day 6
Procedure: (§1) Tu-2449 and U-87MG cells were infected with ˜1×10^4 transducing units (TU) ml^−1 of Toca 511 in the presence of polybrene (8 mgml^−1). Cells were passaged 2-3 times a week for 17 days. […] Cells were seeded on day 0 at a concentration of 1×10^3 cells per well of a 96-well plate in […] of culture medium (Dulbecco's modified Eagle's mediump10% fetal calf serum+gentamicin (17 mg per 100 ml)). On day 1, […] of culture medium containing 5-FC (range 0-1000 mgml^−1), TMZ (range 0-100 mgml^−1) or both drugs (5-FC (range 0-1.6 mgml^−1) and TMZ (2 mgml^−1)) was added to the cells. Viability was measured on day 6 using Cell Proliferation Kit II (XTT) (Roche, Indianapolis, Ind., USA) as recommended by the manufacturer.
(§2) Two glioma lines U-87MG (TMZ-sensitive) and Tu-2449 (TMZ-resistant) were chosen to examine the compatibility of TMZ and Toca 511p5-FC treatment in previously infected cells. These two cell lines were cultured as either non-transduced control or 100% Toca 511-transduced cells. Sensitivity to 5-FC was examined by measuring cell viability after culture in increasing amounts of 5-FC. […] In addition, cell viability was examined in the nontransduced and transduced cell lines treated with increasing amounts of TMZ.

[2] = system: U-87MG cells (naive and Toca 511-transduced); assay: In vitro 5-FC sensitivity assay (XTT viability); format: cell-based, human; conditions: day 6
Procedure: as §1, §2

[3] = pharmacokinetic studies; cited from earlier work
[4] = system: Tu-2449; assay: In vitro RRV-GFP spread (FACS); format: cell-based, mouse; conditions: TMZ up to 20 mgml^−1 added 24 h before RRV-GFP, by day 19
Procedure: (§3) Two different TMZ schedules were tested. To test the effect of preincubation with TMZ, cells were seeded at a density of 1×10^5 cells per well on six-well plates. After 24 h, different concentrations of TMZ were added to the cells. The next day, cells were infected with RRV-GFP vector at a multiplicity of infection of 0.1. To test the effect of concomitant TMZ, cells were seeded at a density of 1×10^5 cells per well on six-well plates. After 48 h, cells were infected with RRV-GFP vector at a multiplicity of infection of 0.1 in the presence of different concentrations of TMZ. The following day, cells were transferred to T25 flasks keeping the indicated TMZ concentration. Cells were analyzed three times a week by enhanced green fluorescent protein fluorescence-activated cell sorting analysis for virus spread, maintaining the indicated TMZ concentration during the entire experiment.
(§4) To test any possible effect of TMZ on the spread of Toca 511, the same panel of glioma cells was treated with different concentrations of TMZ depending on the TMZ sensitivity of the cells determined in the clonogenic assay in FIG. 1b. In addition, vector with the same backbone as Toca 511 but encoding a GFP transgene (RRV-GFP) was used to assess vector spread by fluorescence-activated cell sorting analysis. Two TMZ treatment schedules were tested. […]

[5] = system: LN-18; assay: In vitro RRV-GFP spread (FACS); format: cell-based, human; conditions: TMZ up to 20 mgml^−1 added 24 h before RRV-GFP, by day 19
Procedure: as §3
(§5) To test any possible effect of TMZ on the spread of Toca 511, the same panel of glioma cells was treated with different concentrations of TMZ depending on the TMZ sensitivity of the cells determined in the clonogenic assay in FIG. 1b. In addition, vector with the same backbone as Toca 511 but encoding a GFP transgene (RRV-GFP) was used to assess vector spread by fluorescence-activated cell sorting analysis. Two TMZ treatment schedules were tested. The first schedule tested treatment with varying concentrations of TMZ before and during the time of vector infection, and the second schedule tested treatment with varying concentrations of TMZ at the same time as the addition of vector. In the first schedule, glioma cells were incubated with different concentrations of TMZ 24 h before the addition of RRVGFP at a multiplicity of infection of 0.1. […] There was an initial lag or decrease in GFP positivity at earlier time points (FIG. 2a). […] In the second schedule, when TMZ and RRV-GFP were added to the glioma cells concomitantly, the same trend was observed; after an initial lag, cells reached nearly 100% GFP positivity in the presence of TMZ (FIG. 2b). The observed infectivity lag was likely due to induction of apoptosis in a certain percentage of cells with TMZ treatment. Surviving cells were still susceptible to infection with RRV-GFP and able to produce more RRV-GFP virus for further infection and spread within the culture dish. […] Rather the data is consistent with the conclusion that slowing of tumor cell replication with the anticancer drug TMZ, slows the replication of the RRV because of the inhibition of cancer cell replication and the requirement for cell replication for productive infection with RRV.

[6] = system: 8-MG-BA; assay: In vitro RRV-GFP spread (FACS); format: cell-based, human; conditions: 1 and 2 mgml^−1 TMZ added 24 h before RRV-GFP, by day 16
Procedure: as §3, §5

[7] = system: U-87MG; assay: In vitro RRV-GFP spread (FACS); format: cell-based, human; conditions: 10 mgml^−1 of TMZ
Procedure: as §3, §5

[8] = system: LN-229; assay: In vitro RRV-GFP spread (FACS); format: cell-based, human; conditions: 1 and 2 mgml^−1 TMZ added 24 h before RRV-GFP, by day 16
Procedure: as §3, §5

[9] = Dose finding study 5-FC and TMZ, hematological examination, healthy B6C3/F1 mice; format: in vivo, mouse
Procedure: A dose finding study was conducted in healthy B6C3/F1 hybrid mice to evaluate the clinical effects and possible hematological changes during concomitant administration of 5-FC and TMZ. Both drugs are known to cause hematological toxicity in some circumstances and therefore it is important to examine any potential drug interaction with respect to this potentially toxic side effect. Three concentrations of TMZ (25, 60 and 125 mgkg^−1) in combination with a fixed dose of 5-FC (500 mgkg^−1 per dose) were administered intraperitoneal SID for 4 consecutive days starting on days 1, 8, 22 and 36. Mice were terminated on day 51 for hematological examination.

[10] = system: five glioma cell lines (U-87MG, LN-18, LN-229, 8-MG-BA, Tu-2449); format: cell-based, human and mouse
Procedure: as §3, §4

[11] = Dose finding study 5-FC and TMZ, hematological examination, healthy athymic mice; format: in vivo, mouse
Procedure: To test the effect of the combination therapy of TMZ and Toca 511+5-FC treatment in a TMZ-sensitive cell line in vivo, the U-87MG cell line was used in an orthotopic xenograft glioma model in immunocompromised mice. A similar TMZ dose finding study as for the C3B6F1-immunocompetent mice was conducted in healthy athymic mice to evaluate the clinical effects and possible hematological changes during concomitant administration of 5-FC and TMZ. Two concentrations of TMZ (25 and 60 mgkg^−1) in combination with a fixed dose of 5-FC (500 mgkg^−1 per dose) were administered intraperitoneal SID for 4 consecutive days starting on days 1, 15, 29 and 43. Mice were terminated on day 53 for hematological examination.

[12] = system: human NET cell lines; conditions: capecitabine and TMZ in human NET cell lines; cited from earlier work
[13] = highest TMZ dose (125 mgm^−2) coadministered with 5-FC

Which “sensitivity to 5-FC (cell viability)” value ([1]; Toca 511-transduced Tu-2449) does the source give for Nc1nc(=O)[nH]cc1F [5-FC, 5-fluorocytosine] here?
The value was “sensitive to 5-FC in a dose-dependent manner”.

What about the “sensitivity to 5-FC (cell viability)” value ([1]; naive (non-transduced) Tu-2449, up to 100 mgml^−1 5-FC) of the same compound?
Its value is “highly resistant”.

And the “sensitivity to 5-FC (cell viability)” value ([2]; Toca 511-transduced U-87MG)?
The value was “sensitive to 5-FC in a dose-dependent manner”.

What about the “sensitivity to 5-FC (cell viability)” value ([2]; naive (non-transduced) U-87MG, up to 100 mgml^−1 5-FC) of the same compound?
The value was “highly resistant”.

For O=c1[nH]cc(F)c(=O)[nH]1 [5-FU, 5-fluorouracil], which “blood brain barrier passage” value [3] is on record?
The value was “crosses the blood brain barrier”.

Which GFP positivity [4] does the source give for Cn1nnc2c(C(N)=O)ncn2c1=O [TMZ, Temozolomide] here?
Its GFP positivity is about 100%.

And the GFP positivity [5]?
The GFP positivity was about 100%.

And the GFP positivity [6]?
The GFP positivity was 100%.

What about the cells killed [7] of the same compound?
Its cells killed is about 90%.

And the GFP positivity [8]?
The GFP positivity was 100%.

And the hematological changes ([9]; TMZ 25 mgkg^−1 per day (human equivalent of 75 mgm^−2) with 5-FC 500 mgkg^−1 per dose)?
The hematological changes was “without significant hematological changes”.

And the leukocytes [9, 13]?
Its leukocytes is “almost complete loss”.

And the platelet counts [9, 13]?
Its platelet counts is “significant reduction”.

What about the GFP positivity [10] of the same compound?
Its GFP positivity is about 100%.

And the hematological changes ([11]; TMZ 60 mgkg^−1 (human equivalent of 200 mgm^−2) in combination with 5-FC)?
The hematological changes was “substantially severe hematological changes (leukocytopenia, thrombocytopenia)”.

And the “increase in ALT activity” value ([11]; TMZ 60 mgkg^−1 in combination with 5-FC)?
Its value is “five fold increase”.

What about the “changes in hematological parameters” value ([11]; lower TMZ dose of 25 mgkg^−1 in combination with 5-FC) of the same compound?
Its value is “mild changes”.

With CCCCCOC(=O)Nc1nc(=O)n([C@@H]2O[C@H](C)[C@@H](O)[C@H]2O)cc1F [capecitabine] as the compound, how does the “induction of apoptosis, combination effect” value [12] read?
The value was “synergistic”.
